Assay results reported in paper PMC8591201, “Anti-Tumor Activity of AZD4547 Against NTRK1 Fusion Positive Cancer Cells Through Inhibition of NTRKs” (Frontiers in Oncology, 2021).

What was measured:
Test in all cases: cells
Set-up in all cases: Anti-proliferation, 10-point dose response, CellTiter-Glo luminescence (MTT stated for KM12(Luc)), GI50 fitted in Prism
HL-60 = conditions: Homo sapiens, HL-60, 72 h, read-out: GI50 (µM) a
MDA-MB-453 = conditions: Homo sapiens, MDA-MB-453, 72 h, read-out: GI50 (µM) a
NCI-H1299 = conditions: Homo sapiens, NCI-H1299, 72 h, read-out: GI50 (µM) a
OVCAR-8 = conditions: Homo sapiens, OVCAR-8, 72 h, read-out: GI50 (µM) a
SK-HEP-1 = conditions: Homo sapiens, SK-HEP1, 72 h, read-out: GI50 (µM) a
SK-MEL-30 = conditions: Homo sapiens, SK-MEL-30, 72 h, read-out: GI50 (µM) a
SW480 = conditions: Homo sapiens, SW480, 72 h, read-out: GI50 (µM) a
U-2-OS = conditions: Homo sapiens, U2OS, 72 h, read-out: GI50 (µM) a
U138 = conditions: KM12-Luc, 72 h, read-out: GI50 (µM) a
U251 = conditions: Homo sapiens, U-251, 72 h, read-out: GI50 (µM) a
U937 = conditions: Homo sapiens, U-937, 72 h, read-out: GI50 (µM) a
UMUC3 = conditions: Homo sapiens, UMUC3, 72 h, read-out: GI50 (µM) a

COc1cc(CCc2cc(NC(=O)c3ccc(N4C[C@@H](C)N[C@@H](C)C4)cc3)n[nH]2)cc(OC)c1 [AZD4547]
GI50 (HL-60): 9.31 µM | GI50 (MDA-MB-453): 5.36 µM | GI50 (NCI-H1299): 60.6 µM | GI50 (OVCAR-8): 4.97 µM | GI50 (SK-HEP-1): 12.6 µM | GI50 (SK-MEL-30): 16.5 µM | GI50 (SW480): 14.1 µM | GI50 (U-2-OS): 0.43 µM | GI50 (U138): 8.48 µM | GI50 (U251): 11.6 µM | GI50 (U937): 12.2 µM | GI50 (UMUC3): 46.3 µM
